We go through 20 compounds from ChEMBL document CHEMBL5316363, “Compounds Related to Saudin and Three New Series of Diterpenoids from Clutia lanceolata” (2023).

This test is filed under the species Mus musculus. Kind of test: Induction of glucose-triggered insulin secretion in BALB/c mouse islets of langerhans measured per islets incubated for 60 mins by ELISA analysis (reference value: 11.8 +/- 0.8 ng/hr). It is filed as functional. To be noted: 1 h.

In the case of `C[C@@H]1C(=O)O[C@@]23CC[C@@]4(C)C(=O)OC[C@]45O[C@@](c4ccoc4)(C[C@H]1[C@]25C)O3`, the Activity amounted to 25.5 ng/h.

On to `CC(=O)O[C@@H]1[C@H]2[C@H](c3ccoc3)OC(=O)[C@H](C)[C@@]2(O)[C@@]23CCC[C@@](C)(C(=O)OC2)[C@@]13O`, for which the Activity came out at 8 ng/h.

`C[C@H]1C(=O)O[C@@H](c2ccoc2)C[C@H]1[C@@]1(C)CCC[C@@]2(C)C(=O)OC[C@H]12` showed an Activity of 10.6 ng/h.

For the compound `COC(=O)[C@]1(C)CC[C@@H](O)[C@@H]2C3=C(C)C(=O)O[C@@H](c4ccoc4)[C@@H]3[C@@H](OC(C)=O)[C@H]21`, the Activity stood at 14.6 ng/h.

Take `COC(=O)[C@]1(C)CCC[C@@]2(C)[C@@]3(O)[C@@H]([C@@H](O)[C@@]21O)[C@H](c1ccoc1)OC(=O)[C@@H]3C`: the Activity amounted to 8.2 ng/h.

As for `CCCCNC(=O)NS(=O)(=O)c1ccc(C)cc1` [TOLBUTAMIDE], the Activity came out at 19.9 ng/h.

Consider `C[C@@H]1C(=O)O[C@@H](c2ccoc2)C[C@H]1[C@@]1(C)CCC[C@@]2(C)COC(=O)[C@@H]21`, for which the Activity was determined as 16.9 ng/h.

The compound `COC(=O)[C@]1(C)CCCC2=C1[C@@H](OC(C)=O)[C@H]1[C@H](c3ccoc3)OC(=O)[C@@H](C)[C@@]21O` displayed an Activity of 12.5 ng/h.

In turn, `COC(=O)[C@]1(C)CCC[C@]2(C)[C@H]1[C@H](OC(C)=O)[C@H]1[C@H](c3ccoc3)OC(=O)[C@H](C)[C@]12O` displayed an Activity of 7.5 ng/h.

As for `CC(=O)O[C@H]1[C@@H]2[C@@H]([C@@H](C)C(=O)O[C@H]2c2ccoc2)[C@@]23CCC[C@@](C)(C(=O)OC2O)[C@@]13O` (stereo not given in full), the Activity is 16.6 ng/h.

Compound `COC(=O)[C@]1(C)CCC[C@@]2(C)[C@@]3(O)[C@@H]([C@@H](OC(C)=O)[C@@]21O)[C@H](c1ccoc1)OC(=O)[C@@H]3C` gave an Activity of 24.7 ng/h.

`C[C@@H]1C(=O)O[C@@]23CC[C@@]4(C)C(=O)OC[C@]45O[C@@](C4=C[C@H](O)OC4=O)(C[C@H]1[C@]25C)O3` came in with an Activity of 25.5 ng/h.

Compound `CC(=O)O[C@@H]1[C@@H]2C(=C(C)C(=O)O[C@H]2c2ccoc2)[C@]2(C)[C@@H]3CC[C@@](C)(C(=O)O3)[C@@H]12` showed an Activity of 8 ng/h.

Regarding `C[C@H]1C(=O)O[C@@]23COC(=O)[C@]2(C)CCC(=O)[C@@]3(C)[C@@H]1CC(=O)c1ccoc1`, the Activity was determined as 18.4 ng/h.

The compound `C[C@@H]1C(=O)O[C@@]23CC[C@@]4(C)C(=O)OC[C@]45O[C@@](C4=CC(=O)OC4O)(C[C@H]1[C@]25C)O3` (stereo not given in full) yielded an Activity of 20.8 ng/h.

`COC(=O)[C@]1(C)CCC[C@@]2(C)C3=C(C)C(=O)O[C@@H](c4ccoc4)[C@@H]3[C@@H](OC(C)=O)[C@]12O` showed an Activity of 9.3 ng/h.

In turn, `COC(=O)[C@]1(C)CCC[C@@]2(C)C3=C(C)C(=O)O[C@@H](C4=CC(=O)OC4O)[C@@H]3[C@@H](OC(C)=O)[C@]12O` (stereo not given in full) returned an Activity of 16.4 ng/h.

Consider `C[C@H]1C(=O)O[C@@]23COC(=O)[C@]2(C)CC[C@@]2(O)O[C@H](c4ccoc4)C[C@H]1[C@@]32C`, for which the Activity is 30.7 ng/h.

Regarding `C[C@@H]1C(=O)O[C@@]23COC(=O)[C@]2(C)CCC(=O)[C@@]3(C)[C@@H]1CC(=O)c1ccoc1`, the Activity turned out to be 16.3 ng/h.

On to `C[C@@H]1C(=O)O[C@@]23CC[C@@]4(C)C(=O)OC[C@]45O[C@@](C4=C[C@@H](O)OC4=O)(C[C@H]1[C@]25C)O3`, for which the Activity is 18.3 ng/h.
